Source: patent US9364493B2, “Methods and compositions for enhancing the uptake of therapeutic agents by target cells” (Tsinghua University, priority 2011, dated 2016)

Tests used:
[1] = system: Human microvascular endothelial cells (HMECs); assay: Internalization of ES and its derivatives in blood vessel endothelial cells (Western Blotting); format: cell-based; settings: for effect on ES internalization in endothelial cells: tested in place of NT: AMB 25-50 μg/mL, methyl-β-cyclodextrin 1-2 mM, filipin 2.5-5 μg/mL; for increase of ES internalization: then ES 5 μg/mL 30 min, vs cells without NT
Text: Human microvascular endothelial cells (HMECs) were from ATCC (accession number CRL 10636). Mouse lymphatic endothelial cells (mLEC) were isolated via digesting peritoneal lymphoma induced by incomplete Freund's adjuvant injection (Zhuo W. et al, Journal of Pathology; 222:249-260). […] (SEQ ID NO:5) at N-terminal, the sequence of which is SEQ ID NO.3 or SEQ ID NO.4 because the first amino acid residue M will be randomly deleted when expressed in E. Coli. ES was obtained from Protgen Ltd., the amino acid sequence of which is SEQ ID NO.1 or SEQ ID NO.2 because the first amino acid residue M will be randomly deleted when expressed in E. Coli. Monomethoxy PEG propionaldehyde (mPEG-ALD) with an average molecular weight of 20 kDa (Jenkem Technology CO., Ltd.,) was used as the PEG reagent for specifically modifying the α-amino group at N-terminal of a protein. PEG-ES and PEG-Endu were prepared by Protgen Ltd. according to the instructions provided in the PEG reagent kit. Monoclonal antibody against ES was purchased from Oncogene Science, Inc. NT and other reagents were purchased from Sigma-Aldrich Co.
The endothelial cells were cultured to reach 90% confluence, and then pre-treated with DMEM medium (Hyclone) containing NT as follows. NT stock solution was added to the medium to a final concentration of 0 μg/mL, 25 μg/mL, or 50 μg/mL, and the culture was then incubated in a 5% CO2 atmosphere at 37° C. for 20 min for NT pre-treatment. After pre-treatment, ES stock solution (5 mg/ml) was added to the medium to a final concentration of 5 μg/mL. The culture was then incubated in a 5% CO2 atmosphere at 37° C. for 30 min to allow the internalization of ES by the endothelial cells. After removing the medium, the endothelial cells were washed with ice-cold PBS for 3 times and then collected. The ES internalization in whole cell lysate, cytosolic fraction, and nuclear fraction was examined by Western Blotting, compared with the cells without NT treatment.
Some other agents which share the same action mechanism as NT were also tested in place of in this example, such as AMB (25-50 μg/mL), methyl-β-cyclodextrin (1-2 mM), and filipin (2.5-5 μg/mL).
Other therapeutic agents which share the same action mechanism as ES can also be used in this example, such as PEG-modified ES. For this purpose, ES was modified with monomethoxy PEG propionaldehyde (mPEG-ALD) of 20 kDa which specifically modifies the N-terminal of a protein, and the product (PEG-ES) was an ES protein conjugated with one PEG molecule at the N-terminal α-amino group of ES.

[2] = system: Human lung adenocarcinoma A549 tumor; assay: A549 lung adenocarcinoma tumor growth in nude mice; format: in vivo; settings: NT 6 mg/kg i.p. daily alone, fourteen daily injections; vs control group
Method: Human lung adenocarcinoma A549 tumor cells (ATCC accession number CCL-185) at exponential growth were subcutaneously inoculated into 6-8 week-old nude mice (Vital River Laboratory Animal Technology Co., Ltd). When the tumor volume reached 100 mm^3, the tumor bearing nude mice were separated into four groups: (1) negative control, treatment with saline; (2) NT group, treatment with NT (6 mg/kg, intraperitoneal injection, daily), without ES treatment; (3) ES group, treatment with ES (12 mg/kg, intraperitoneal injection, daily), without NT treatment; (4) NT plus ES group, combined treatment with NT (6 mg/kg, intraperitoneal injection, daily) and ES (12 mg/kg, intraperitoneal injection, daily). After fourteen daily injections, mice were sacrificed, and the weight and volume of the tumors were measured.

p38 MAPK pathway = assay: p38 MAPK signaling pathway activation in endothelial cells (Western Blotting); format: cell-based; settings: NT 50 μg/mL 20 min and/or ES 5 μg/mL 30 min; vs negative control
Method: (§1) In this example, endothelial cells were separated into four groups: (1) negative control group, neither NT treatment, nor ES treatment; (2) NT group, treatment with NT at 50 μg/mL for 20 min, without ES treatment; (3) ES group, treatment with ES at 5 μg/mL for 30 min, without NT treatment; (4) NT plus ES group, treatment with NT at 50 μg/mL for 20 min, followed by treatment with ES at 5 μg/mL for 30 min. After treatment with the same method as described in Example 1, cells were collected and the ERK and p38 MAPK pathways were examined.

H22 liver cancer = H22 liver cancer mouse model; format: in vivo
HMEC = assay: Transwell cell migration assay; format: cell-based, human; settings: NT 50 μg/mL alone; 10 ng/mL VEGF, 6 hours; vs negative control
Method: Cell migration assay: HMEC (2×10^4 cells per well) were seeded into DMEM (Hyclone) containing 0.5% FBS (Hyclone) and 10 ng/mL VEGF (PeproTech) on the upper layer of Transwell chambers (8 μm pores, Costar). ES (40 μg/mL) or NT (50 μg/mL) was added into both the upper and lower layers, and then the chambers were incubated in a 5% CO2 atmosphere at 37° C. for 6 hours to allow cell migration. […] The numbers of the cells migrated into the lower layer were counted and mean values were calculated. Experiments were performed in triplicate and each experiment was repeated twice.
In this example, endothelial cells were separated into four groups: (1) negative control group, neither NT treatment, nor ES treatment; (2) NT group, treatment with NT at 50 μg/mL, without ES treatment; (3) ES group, treatment with ES at 40 μg/mL, without NT treatment; (4) NT plus ES group, combined treatment with NT at 50 μg/mL and ES at 40 μg/mL. […] ES treatment (ES group) inhibited the transwell migration of endothelial cells by 61%.

[3] = system: Mouse lymphatic endothelial cells (mLEC); assay: ES internalization in lymphatic endothelial cells (Western Blotting); format: cell-based; settings: then ES 2 μg/mL 15 min
Text: Human microvascular endothelial cells (HMECs) were from ATCC (accession number CRL 10636). Mouse lymphatic endothelial cells (mLEC) were isolated via digesting peritoneal lymphoma induced by incomplete Freund's adjuvant injection (Zhuo W. et al, Journal of Pathology; 222:249-260). Endu was obtained from Simcere-Medgenn Bio-pharmaceutical Co., Ltd. Endu is a recombinant ES containing an additional amino acid sequence (M)GGSHHHHH (SEQ ID NO:5) at N-terminal, the sequence of which is SEQ ID NO.3 or SEQ ID NO.4 because the first amino acid residue M will be randomly deleted when expressed in E. Coli. ES was obtained from Protgen Ltd., the amino acid sequence of which is SEQ ID NO.1 or SEQ ID NO.2 because the first amino acid residue M will be randomly deleted when expressed in E. Coli. Monomethoxy PEG propionaldehyde (mPEG-ALD) with an average molecular weight of 20 kDa (Jenkem Technology CO., Ltd.,) was used as the PEG reagent for specifically modifying the α-amino group at N-terminal of a protein. PEG-ES and PEG-Endu were prepared by Protgen Ltd. according to the instructions provided in the PEG reagent kit. Monoclonal antibody against ES was purchased from Oncogene Science, Inc. NT and other reagents were purchased from Sigma-Aldrich Co.
The mLECs were pre-treated with DMEM (Hyclone) containing 0, 75, 150, or 300 μg/mL NT in a 5% CO2 atmosphere at 37° C. for 20 min. The cells were then incubated with culture media containing ES (final concentration of 2 μg/mL) in a 5% CO2 atmosphere at 37° C. for 15 min. After treatment, the cells were washed with PBS for 3 times, and then collected. The ES internalization in cells treated with NT at various concentrations was examined by Western Blotting.

[4] = system: tumor blood vessel endothelial cells (CD31) in A549 tumors; assay: Tumor blood vessel formation assay (CD31 immunofluorescence), A549 mice; format: in vivo, nude mice; settings: NT 6 mg/kg plus ES 12 mg/kg vs ES alone, CD31 blood vessel area
Text: Tumor blood vessel formation assay: Tumors from A549 mice were resected, fixed and sectioned. Samples were detected with primary antibody against CD31 (the marker of tumor blood vessel endothelial cells) and FITC-labeled secondary antibody (Santa Cruz), and then observed with Nikon A1 laser scanning confocal microscope (LSCM). The sectional areas of blood vessels in randomly selected fields (400×) were quantified and averaged with the software of the LSCM system.

ERK pathway = assay: ERK signaling pathway activation in endothelial cells (Western Blotting); format: cell-based; settings: NT 50 μg/mL 20 min and/or ES 5 μg/mL 30 min; vs negative control
Method: as §1

[5] = system: EGFR-expressing A549 cells; assay: EGFR monoclonal antibody (Cetuximab) internalization in tumor cells (Western Blotting); format: cell-based, human; settings: NT 25 or 50 μg/mL pre-treatment 20 min, then Cetuximab 5 μg/mL 30 min; positively correlated to NT concentrations
Method: EGFR-expressing A549 cells at exponential growth were cultured to reach 90% confluence and then pre-treated with DMEM medium containing NT as follows. NT stock solution was added to the medium to a final concentration of […], 25 μg/mL, or 50 μg/mL, and the culture was then incubated in a 5% CO2 atmosphere at 37° C. for 20 min for NT pre-treatment. After pre-treatment, EGFR monoclonal antibody (Cetuximab, Merck) stock solution (5 mg/ml) was added to the medium to a final concentration of 5 μg/mL. The culture was then incubated in a 5% CO2 atmosphere at 37° C. for 30 min to allow the internalization of EGFR monoclonal antibody by the […]. After treatment, the medium was removed, and the endothelial cells were washed with ice-cold PBS for 3 times and then collected. The EGFR monoclonal antibody internalization in cells was examined by Western Blotting, compared with EGFR monoclonal antibody internalization in cells without NT treatment.

[6] = NT treatment, same dosage and treatment time, positively correlated to NT concentration

methyl-β-cyclodextrin
effect on ES internalization in endothelial cells [1]: can increase ES internalization

C[C@@H]1[C@H](O)[C@@H](C)/C=C/C=C/CC/C=C/C=C/C=C/C=C/C(O[C@H]2O[C@H](C)[C@@H](O)[C@H](N)[C@@H]2O)CC2O[C@](O)(CC(O)C(O)CCC(O)CC(O)CC(O)CC(=O)O[C@H]1C)CC(O)C2C(=O)O (stereo partly shown) [NT, Nystatin]
effect on tumor growth (in words) [2]: did not influence tumor growth
effect on activation of p38 MAPK pathway (p38 MAPK pathway): did not influence
effect on antiangiogenesis activity of ES (H22 liver cancer; tumor blood vessel area): enhancement effect
effect on antitumor activity of ES (H22 liver cancer; tumor weight): enhancement effect
effect on transwell migration of endothelial cells (in words) (HMEC): did not substantially influence
increase of ES internalization in mLECs ([3]; NT 75 μg/mL pre-treatment 20 min): 16 fold
increase of ES internalization in mLECs ([3]; NT 150 μg/mL pre-treatment 20 min): 32 fold
increase of ES internalization in mLECs ([3]; NT 300 μg/mL pre-treatment 20 min): 78 fold
effect on inhibitory efficacy of ES on tumor blood vessel formation [4]: potentiated
effect on activation of ERK pathway (ERK pathway): did not influence
effect on Cetuximab internalization in the cells [5]: significantly increased
increase of ES internalization ([1]; NT 25 μg/mL pre-treatment 20 min): about 2 folds
increase of ES internalization ([1]; NT 50 μg/mL pre-treatment 20 min): ~15 folds
effect on PEG-ES internalization in blood vessel endothelial cells ([1]; NT treatment, same PEG-ES dosage and treatment time, positively correlated to NT concentration): increased
effect on Endu internalization in endothelial cells [1, 6]: increased
effect on PEG-Endu internalization in endothelial cells [1, 6]: increased

C[C@@H]1[C@H](O)[C@@H](C)/C=C/C=C/C=C/C=C/C=C/C=C/C=C/[C@H](O[C@@H]2O[C@H](C)[C@@H](O)[C@H](N)[C@@H]2O)C[C@@H]2O[C@](O)(C[C@@H](O)C[C@@H](O)[C@H](O)CC[C@@H](O)C[C@@H](O)CC(=O)O[C@H]1C)C[C@H](O)[C@H]2C(=O)O [AMB, Amphotericin B]
effect on ES internalization in endothelial cells [1]: can increase ES internalization

CCCCC[C@@H](O)[C@H]1C(=O)O[C@H](C)[C@@H](O)/C=C/C=C/C=C/C=C/C=C(\C)[C@@H](O)C[C@H](O)C[C@H](O)C[C@H](O)C[C@H](O)C[C@H](O)C[C@@H]1O [filipin]
effect on ES internalization in endothelial cells [1]: can increase ES internalization
